Reference: patent publication US12673944B2, “Compounds having inhibitory activity against glucosylceramide synthase or pharmaceutically acceptable salt thereof, processes for preparing the same, and pharmaceutical compositions comprising the same” (YUHAN CORPORATION, priority 2019, dated 2026)

Assays:
[1] = target: T1, glucosylceramide synthase (GCS) (Homo sapiens, UniProt Q16739); experiment: GCS enzyme inhibition assay (A549 cell lysate, NBD C6-ceramide, HPLC fluorescence); format: biochemical; settings: inhibitory activity against GCS, 37° C., 90 minutes
T1 construct: The obtained supernatant was used; host or cells: A549 cells (lysate supernatant after sonication)
T1 sequence (Q16739 1-394): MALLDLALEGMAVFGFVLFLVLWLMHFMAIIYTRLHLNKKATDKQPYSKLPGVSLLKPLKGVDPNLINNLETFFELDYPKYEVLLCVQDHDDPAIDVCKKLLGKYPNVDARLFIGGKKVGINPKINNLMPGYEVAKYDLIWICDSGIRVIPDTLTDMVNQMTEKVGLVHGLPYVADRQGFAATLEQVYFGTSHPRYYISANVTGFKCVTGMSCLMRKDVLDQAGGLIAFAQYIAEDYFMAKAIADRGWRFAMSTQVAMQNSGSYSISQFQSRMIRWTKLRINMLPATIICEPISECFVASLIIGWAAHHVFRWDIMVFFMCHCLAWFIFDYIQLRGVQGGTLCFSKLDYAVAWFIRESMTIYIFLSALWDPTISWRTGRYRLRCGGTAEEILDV
Outline: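 Percent GCS activity was derived from the GlcCer share of Cer plus GlcCer areas, scaled from ibiglustat (0%) to DMSO (100%). Enzyme came from sonicated A549 lysate in 50 mM HEPES pH 7.3; 90 min incubation at 37° C, chloroform/methanol stop and extraction.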

[2] = system: GM1 production in Jurkat cells; experiment: cells; format: cell-based; settings: Homo sapiens, Jurkat, 72 h

COc1cc(F)ccc1-c1ccc2c(c1)OCC(C)(C)C2NC(=O)O[C@@H]1CN2CCC1CC2 (stereo partly drawn) [Example 120, (S)-quinuclidin-3-yl (7-(4-fluoro-2-methoxyphenyl)-3,3-dimethylchroman-4-yl)carbamate]
IC50 [1]: 0.71 nM
IC50 [2]: 6.41 nM

COc1cccc(Cl)c1-c1ccc2c(c1)OCC(C)(C)C2NC(=O)O[C@@H]1CN2CCC1CC2 (stereo partly drawn) [Example 121, (S)-quinuclidin-3-yl (7-(2-chloro-6-methoxyphenyl)-3,3-dimethylchroman-4-yl)carbamate]
IC50 [1]: 2.67 nM
IC50 [2]: 15.9 nM

COc1cccc(F)c1-c1ccc2c(c1)OCC(C)(C)C2NC(=O)O[C@@H]1CN2CCC1CC2 (stereo partly drawn) [Example 122, (S)-quinuclidin-3-yl (7-(2-fluoro-6-methoxyphenyl)-3,3-dimethylchroman-4-yl)carbamate]
IC50 [1]: 0.96 nM
IC50 [2]: 3.75 nM

COc1cc(F)c(-c2ccc3c(c2)OCC(C)(C)C3NC(=O)O[C@@H]2CN3CCC2CC3)cc1F (stereo partly drawn) [Example 123, (S)-quinuclidin-3-yl (7-(2,5-difluoro-4-methoxyphenyl)-3,3-dimethylchroman-4-yl)carbamate]
IC50 [1]: 0.79 nM
IC50 [2]: 4.24 nM

CCOc1ccc(-c2ccc3c(c2)OCC(C)(C)C3NC(=O)O[C@@H]2CN3CCC2CC3)cc1F (stereo partly drawn) [Example 124, (S)-quinuclidin-3-yl (7-(4-ethoxy-3-fluorophenyl)-3,3-dimethylchroman-4-yl)carbamate]
IC50 [1]: 0.75 nM
IC50 [2]: 4.47 nM

COc1ccc(-c2ccc3c(c2)OCC(C)(C)C3NC(=O)O[C@@H]2CN3CCC2CC3)c(OC)c1 (stereo partly drawn) [Example 125, (S)-quinuclidin-3-yl (7-(2,4-dimethoxyphenyl)-3,3-dimethylchroman-4-yl)carbamate]
IC50 [1]: 0.86 nM
IC50 [2]: 3.85 nM

COc1ccc(OC)c(-c2ccc3c(c2)OCC(C)(C)C3NC(=O)O[C@@H]2CN3CCC2CC3)c1 (stereo partly drawn) [Example 126, (S)-quinuclidin-3-yl (7-(2,5-dimethoxyphenyl)-3,3-dimethylchroman-4-yl)carbamate]
IC50 [1]: 0.58 nM
IC50 [2]: 0.85 nM

COc1cccc(-c2ccc3c(c2)OCC(C)(C)C3NC(=O)O[C@@H]2CN3CCC2CC3)c1OC (stereo partly drawn) [Example 127, (S)-quinuclidin-3-yl (7-(2,3-dimethoxyphenyl)-3,3-dimethylchroman-4-yl)carbamate]
IC50 [1]: 2.11 nM
IC50 [2]: 14.2 nM

COc1ccc(-c2ccc3c(c2)OCC(C)(C)C3NC(=O)O[C@@H]2CN3CCC2CC3)cc1OC (stereo partly drawn) [Example 128, (S)-quinuclidin-3-yl (7-(3,4-dimethoxyphenyl)-3,3-dimethylchroman-4-yl)carbamate]
IC50 [1]: 2.84 nM
IC50 [2]: 23.2 nM

COc1ccc(-c2ccc3c(c2)OCC(C)(C)C3NC(=O)O[C@@H]2CN3CCC2CC3)c(OC)n1 (stereo partly drawn) [Example 129, (S)-quinuclidin-3-yl (7-(2,6-dimethoxypyridin-3-yl)-3,3-dimethylchroman-4-yl)carbamate]
IC50 [1]: 1.15 nM
IC50 [2]: 4.56 nM

CC1(C)COc2cc(-c3ccc4ccccc4c3)ccc2C1NC(=O)O[C@@H]1CN2CCC1CC2 (stereo partly drawn) [Example 130, (S)-quinuclidin-3-yl (3,3-dimethyl-7-(naphthalen-2-yl)chroman-4-yl)carbamate]
IC50 [1]: 0.71 nM
IC50 [2]: 1.4 nM

CC1(C)COc2cc(-c3cccc4ccccc34)ccc2C1NC(=O)O[C@@H]1CN2CCC1CC2 (stereo partly drawn) [Example 131, (S)-quinuclidin-3-yl (3,3-dimethyl-7-(naphthalen-1-yl)chroman-4-yl)carbamate]
IC50 [1]: 1.02 nM
IC50 [2]: 1.21 nM

CC1(C)COc2cc(-c3ccc4ncccc4c3)ccc2C1NC(=O)O[C@@H]1CN2CCC1CC2 (stereo partly drawn) [Example 132, (S)-quinuclidin-3-yl (3,3-dimethyl-7-(quinolin-6-yl)chroman-4-yl)carbamate]
IC50 [1]: 1.55 nM
IC50 [2]: 8.95 nM

CCOc1c(C)cc(-c2ccc3c(c2)OCC(C)(C)C3NC(=O)O[C@@H]2CN3CCC2CC3)cc1C (stereo partly drawn) [Example 133, (S)-quinuclidin-3-yl (7-(4-ethoxy-3,5-dimethylphenyl)-3,3-dimethylchroman-4-yl)carbamate]
IC50 [1]: 1.35 nM
IC50 [2]: 0.1 nM

CCOc1cc(-c2ccc3c(c2)OCC(C)(C)C3NC(=O)O[C@@H]2CN3CCC2CC3)c(Cl)cc1Cl (stereo partly drawn) [Example 134, (S)-quinuclidin-3-yl (7-(2,4-dichloro-5-ethoxyphenyl)-3,3-dimethylchroman-4-yl)carbamate]
IC50 [1]: 2.83 nM
IC50 [2]: 12.7 nM

CC(C)Oc1ccc(F)c(-c2ccc3c(c2)OCC(C)(C)C3NC(=O)O[C@@H]2CN3CCC2CC3)c1 (stereo partly drawn) [Example 135, (S)-quinuclidin-3-yl (7-(2-fluoro-5-isopropoxyphenyl)-3,3-dimethylchroman-4-yl)carbamate]
IC50 [1]: 0.44 nM
IC50 [2]: 3.46 nM

CC(C)Oc1cc(F)cc(-c2ccc3c(c2)OCC(C)(C)C3NC(=O)O[C@@H]2CN3CCC2CC3)c1 (stereo partly drawn) [Example 136, (S)-quinuclidin-3-yl (7-(3-fluoro-5-isopropoxyphenyl)-3,3-dimethylchroman-4-yl)carbamate]
IC50 [1]: 0.61 nM
IC50 [2]: 2.73 nM

CC1(C)COc2cc(-c3ccc(C(F)(F)F)cc3Cl)ccc2C1NC(=O)O[C@@H]1CN2CCC1CC2 (stereo partly drawn) [Example 137, (S)-quinuclidin-3-yl (7-(2-chloro-4-(trifluoromethyl)phenyl)-3,3-dimethylchroman-4-yl)carbamate]
IC50 [1]: 0.62 nM
IC50 [2]: 0.11 nM

CC1(C)COc2cc(-c3cccc(C(F)(F)F)c3Cl)ccc2C1NC(=O)O[C@@H]1CN2CCC1CC2 (stereo partly drawn) [Example 138, (S)-quinuclidin-3-yl (7-(2-chloro-3-(trifluoromethyl)phenyl)-3,3-dimethylchroman-4-yl)carbamate]
IC50 [1]: 0.63 nM
IC50 [2]: 1.57 nM

CC1(C)COc2cc(-c3cc(C(F)(F)F)ccc3Cl)ccc2C1NC(=O)O[C@@H]1CN2CCC1CC2 (stereo partly drawn) [Example 139, (S)-quinuclidin-3-yl (7-(2-chloro-5-(trifluoromethyl)phenyl)-3,3-dimethylchroman-4-yl)carbamate]
IC50 [1]: 0.62 nM
IC50 [2]: 0.3 nM

CCCOc1c(C)cc(-c2ccc3c(c2)OCC(C)(C)C3NC(=O)O[C@@H]2CN3CCC2CC3)cc1C (stereo partly drawn) [Example 140, (S)-quinuclidin-3-yl (7-(3,5-dimethyl-4-propoxyphenyl)-3,3-dimethylchroman-4-yl)carbamate]
IC50 [1]: 0.88 nM
IC50 [2]: 0.15 nM

CC(C)(C)OCc1ccc(-c2ccc3c(c2)OCC(C)(C)C3NC(=O)O[C@@H]2CN3CCC2CC3)cc1 (stereo partly drawn) [Example 141, (S)-quinuclidin-3-yl (7-(4-(tert-butoxymethyl)phenyl)-3,3-dimethylchroman-4-yl)carbamate]
IC50 [1]: 0.19 nM
IC50 [2]: 0.2 nM

CC1(C)COc2cc(-c3cc(OC(F)(F)F)ccc3Cl)ccc2C1NC(=O)O[C@@H]1CN2CCC1CC2 (stereo partly drawn) [Example 142, (S)-quinuclidin-3-yl (7-(2-chloro-5-(trifluoromethoxy)phenyl)-3,3-dimethylchroman-4-yl)carbamate]
IC50 [1]: 0.67 nM
IC50 [2]: 0.19 nM

CCCCOc1cccc(F)c1-c1ccc2c(c1)OCC(C)(C)C2NC(=O)O[C@@H]1CN2CCC1CC2 (stereo partly drawn) [Example 143, (S)-quinuclidin-3-yl (7-(2-butoxy-6-fluorophenyl)-3,3-dimethylchroman-4-yl)carbamate]
IC50 [1]: 0.78 nM
IC50 [2]: 1.46 nM
